The source of these data is ChEMBL document CHEMBL3808305, “Discovery of fused tricyclic core containing HCV NS5A inhibitors with pan-genotype activity” (Bioorg Med Chem Lett, 2016).

The nature of data set [1]: Oral bioavailability in Sprague-Dawley rat at 5 mg/kg. Format: ADME, organism-based. Particulars: in vivo.
Data set [2] relates to Hepatitis C virus. Put plainly: Antiviral activity against HCV genotype 1a assessed as decrease in HCV replicon RNA replication after 3 days by taqman assay based cell based replicon method. The class given is functional, organism-based, Hepacivirus hominis. Particulars: subtype 1a, 72 h.
A short description of data set [3]: AUC in Sprague-Dawley rat at 5 mg/kg, po. Format: ADME, organism-based. Particulars: in vivo.
In data set [4] the test system is Hepatitis C virus. Kind of data set: Antiviral activity against HCV genotype 2a assessed as decrease in HCV replicon RNA replication after 3 days by taqman assay based cell based replicon method. Format: functional, organism-based, Hepacivirus hominis. Particulars: 72 h. (In antiviral work, replicon cells carry a viral genome segment that copies itself.)
Data set [5] has as its system Hepatitis C virus. Put plainly: Antiviral activity against HCV genotype 1a expressing NS5A Y93H mutant assessed as decrease in HCV replicon RNA replication after 3 days by taqman assay based cell based replicon method. The class given is functional, organism-based, Hepacivirus hominis. Particulars: subtype 1a, 72 h.
Data set [6] in a line: Clearance in Sprague-Dawley rat at 5 mg/kg, po or 2 mg/kg, iv. The class given is ADME, organism-based. Particulars: in vivo.
The test system of data set [7] is Hepatitis C virus. Put plainly: Antiviral activity against HCV genotype 1b assessed as decrease in HCV replicon RNA replication after 3 days by taqman assay based cell based replicon method. Format: functional, organism-based, Hepacivirus hominis. The note with it: 72 h.
The nature of data set [8]: Half life in Sprague-Dawley rat at 5 mg/kg, po or 2 mg/kg, iv. The class given is ADME, organism-based. The note with it: in vivo.
Data set [9] deals with Hepatitis C virus. Kind of data set: Antiviral activity against HCV genotype 3a assessed as decrease in HCV replicon RNA replication after 3 days by taqman assay based cell based replicon method. The class given is functional, organism-based, Hepacivirus hominis. Particulars: 72 h.
Data set [10] is described as follows: Oral bioavailability in Sprague-Dawley rat at 10 mg/kg. The class given is ADME, organism-based. Particulars: in vivo.
Data set [11] is described as follows: Clearance in Sprague-Dawley rat at 10 mg/kg, po or 2 mg/kg, iv. Format: ADME, organism-based. Particulars: in vivo.
The nature of data set [12]: AUC in Sprague-Dawley rat at 10 mg/kg, po. Format: ADME, organism-based. Particulars: in vivo.
Data set [13] is described as follows: Half life in Sprague-Dawley rat at 10 mg/kg, po or 2 mg/kg, iv. The class given is ADME, organism-based. The note with it: in vivo.
The test system of data set [14] is Hepatitis C virus. Put plainly: Antiviral activity against HCV genotype 1b assessed as decrease in HCV replicon RNA replication after 3 days in presence of 10% FBS by taqman assay based cell based replicon method. Format: functional, organism-based, Hepacivirus hominis. The note with it: 72 h.
Data set [15] has as its system Hepatitis C virus. Put plainly: Antiviral activity against HCV genotype 1a expressing NS5A Y93H mutant assessed as decrease in HCV replicon RNA replication after 3 days in presence of 10% FBS by taqman assay based cell based replicon method. The class given is functional, organism-based, Hepacivirus hominis. Particulars: subtype 1a, 72 h.
Data set [16] relates to Hepatitis C virus. Put plainly: Antiviral activity against HCV genotype 1a assessed as decrease in HCV replicon RNA replication after 3 days in presence of 10% FBS by taqman assay based cell based replicon method. Format: functional, organism-based, Hepacivirus hominis. The note with it: subtype 1a, 72 h.
In data set [17] the test system is Hepatitis C virus. Put plainly: Antiviral activity against HCV genotype 2a assessed as decrease in HCV replicon RNA replication after 3 days in presence of 10% FBS by taqman assay based cell based replicon method. The class given is functional, organism-based, Hepacivirus hominis. Particulars: 72 h.
Data set [18] deals with Hepatitis C virus. Put plainly: Antiviral activity against HCV genotype 3a assessed as decrease in HCV replicon RNA replication after 3 days in presence of 10% FBS by taqman assay based cell based replicon method. Format: functional, organism-based, Hepacivirus hominis. Particulars: 72 h.
Data set [19] deals with Hepatitis C virus. Put plainly: Antiviral activity against HCV genotype 2a JFH assessed as decrease in HCV replicon RNA replication by taqman assay based cell based replicon method. Particulars: subtype 2a JFH. Format: functional, organism-based, Hepacivirus hominis.
For data set [20], the system named is Hepatitis C virus. Kind of data set: Antiviral activity against HCV genotype 1b Con1 assessed as decrease in HCV replicon RNA replication by taqman assay based cell based replicon method. The class given is functional, organism-based, Hepacivirus hominis. The note with it: isolate Con1.
Data set [21] relates to Hepatitis C virus. Kind of data set: Antiviral activity against HCV genotype 1a H77 expressing NS5A Y93H mutant infected in mouse HB1 cells assessed as decrease in HCV replicon RNA replication by taqman assay. Particulars: genotype 1a H77, HB1. The class given is functional, organism-based, Hepacivirus hominis.
Data set [22] relates to Hepatitis C virus. Put plainly: Antiviral activity against HCV genotype 1a H77 infected in mouse HB1 cells assessed as decrease in HCV replicon RNA replication after 3 days by taqman assay. Format: functional, organism-based, Hepacivirus hominis. Particulars: genotype 1a H77, HB1, 72 h.
Data set [23] deals with Hepatitis C virus. Kind of data set: Antiviral activity against HCV genotype 3a NC009824 assessed as decrease in HCV replicon RNA replication by taqman assay based cell based replicon method. Format: functional, organism-based, Hepacivirus hominis.

In the case of `COC(=O)N[C@H](C(=O)N1CCC[C@H]1c1ncc(-c2ccc3c(c2)Oc2ccc(-c4cnc([C@@H]5CCCN5C(=O)[C@@H](NC(=O)OC)C(C)C)[nH]4)cc2O3)[nH]1)C(C)C`, the bioavailability in [1] is 26%. Also, the half-maximal effective concentration (EC50) in data set [2] turned out to be 0.01 nM; in data set [4] it was 0.01 nM; in data set [5], 16 nM; in data set [7], 0.009 nM. In [3], this compound returned an AUC of 4.5 µM·h. The same compound registered a clearance in data set [6] of 6.4 mL/min/kg. The compound also had a half-life in [8] of 1.4 h.
As for `COC(=O)N[C@H](C(=O)N1CCC[C@H]1c1ncc(-c2ccc3c(c2)Oc2ccc(-c4cnc([C@@H]5CCCN5C(=O)[C@@H](NC(=O)OC)C(C)C)[nH]4)cc2C3(C)C)[nH]1)C(C)C`, the concentration for a half-maximal effect (EC50) in data set [9] is 0.3 nM; in data set [2], 0.02 nM; in data set [4] it was less than 0.02 nM; in data set [5], 130 nM; in data set [7] it was 0.005 nM. Also, in [10], the bioavailability was determined as 39%. This compound had a clearance in [11] of 19 mL/min/kg. Further, the AUC in data set [12] came to 2.3 µM·h. The half-life in data set [13] was 1.6 h.
Compound `COC(=O)N[C@H](C(=O)N1CCC[C@H]1c1ncc(-c2ccc3c(c2)Oc2ccc(-c4cnc([C@@H]5CCCN5C(=O)[C@@H](NC(=O)OC)C(C)C)[nH]4)cc2S3)[nH]1)C(C)C` returned a bioavailability in data set [1] of 25%. Moreover, the concentration giving a half-maximal response (EC50) in [9] came to 0.3 nM; in data set [2], 0.04 nM; in data set [4] it was 0.06 nM; in [5] it was 21 nM; in data set [7], 0.002 nM. Besides, the AUC in data set [3] was found to be 1.1 µM·h. For the same compound, the clearance in data set [6] was 15 mL/min/kg. Further, the half-life in data set [8] is 1.3 h.
As to `COC(=O)N[C@H](C(=O)N1CCC[C@H]1c1ncc(-c2ccc3c(c2)Oc2ccc(-c4cnc([C@@H]5CCCN5C(=O)[C@@H](NC(=O)OC)C(C)C)[nH]4)cc2C3C2CC2)[nH]1)C(C)C` (stereo partly specified), the 50% effective concentration (EC50) stood at 0.004 nM in data set [14]; 46 nM in data set [15]; 0.03 nM in data set [16]; 0.004 nM in data set [17]; 0.2 nM in data set [18].
`COC(=O)N[C@H](C(=O)N1CCC[C@H]1c1nc(-c2ccc3c(c2)O[C@@H](c2ccccc2)n2c-3cc3cc(-c4c[nH]c([C@@H]5CCCN5C(=O)[C@@H](NC(=O)OC)C(C)C)n4)ccc32)c[nH]1)C(C)C` [ELBASVIR]: the EC50 worked out at 0.003 nM in data set [19]; 0.003 nM in data set [20]; 2 nM in data set [21]; 0.004 nM in data set [22]; 0.02 nM in [23].

What is called bioavailability is dose-corrected exposure relative to a reference, in per cent. By EC50 is commonly meant the concentration at which the effect is half-maximal. One may read the AUC as concentration integrated over time. Read a high AUC as high exposure. One may read the half-life as the time in which the quantity being followed falls by half. A low value points to fast loss.
